Biological target: T1, human somatostatin receptor subtype 2 (Homo sapiens, UniProt P30874)
T1 construct: expressed in transfected cells; host or cells: CHO (Chinese hamster ovary) cells, cultured under G-418 selection
Test: cAMP assay (inhibition of cAMP activities via sst2 receptor)
Format: cell-based
Details: CHO cells expressing the human somatostatin receptor subtype 2, forskolin
From the text: General overview: All five SSTR subtypes are Gi coupled G-protein coupled receptors (GPCRs) that lead to decreases in intracellular cyclic AMP (cAMP) when activated by an agonist. Therefore, measurement of intracellular cAMP levels can be used to assess whether compounds of the invention are agonists of SSTR subtypes (John Kelly, Troy Stevens, W. Joseph Thompson, and Roland Seifert, Current Protocols in Pharmacology, 2005,2.2.1-2.2). One example of an intracellular cAMP assay is described below.
One day prior to the assay, 40,000 Chinese hamster ovary (CHO) cells expressing the human somatostatin receptor subtype 2 are plated in each well of a 96-well tissue culture plate in DM-MEM growth media (Gibco) with the following additives: 10% fetal bovine serum (Gibco), 100 U/mL penicillin (Gibco), 100 ug/mL streptomycin (Gibco), 10 mM HEPES (Gibco), 1.2 mM sodium hydroxide, 0.5 mg/mL G-418 (Gibco)). The cells are cultured overnight at 37° C., 5% CO2 and 95% humidity. On the day of the assay, the media is aspirated and the cells are washed with 1X Dulbecco's phosphate buffered saline (Gibco). Next, 5 μL of assay buffer (1× Earle's Balanced Salt Solution (Gibco), 5 mM MgCl2, 10 mM HEPES, 0.1% bovine serum albumin, 0.2 mM 3-Isobutyl-1-methylxanthine (IBMX, Biomol Research Labs)) and forskolin is added. Various dilutions of the compounds of the invention are prepared in assay buffer and 5 μL of the dilutions are added to the cultured cells and incubated for 15 minutes at 37° C. (the final concentration of the compounds of the invention are typically 0-10,000 nM). 10 μL of lysis buffer (HRTF cAMP kit, Cisbio) containing cAMP detection and visualization antibodies are added and the assay is allowed incubate for 1-24 hours at room temperature. The intracellular cAMP concentrations are then measured using a commercially available detection kit (for example, the cAMP HTRF kit, Cisbio). The measured intracellular cAMP concentrations are plotted vs. the concentration of the compounds of the invention and the EC50 of the compounds are calculated using standard methods.

T1 sequence (P30874 whole entry): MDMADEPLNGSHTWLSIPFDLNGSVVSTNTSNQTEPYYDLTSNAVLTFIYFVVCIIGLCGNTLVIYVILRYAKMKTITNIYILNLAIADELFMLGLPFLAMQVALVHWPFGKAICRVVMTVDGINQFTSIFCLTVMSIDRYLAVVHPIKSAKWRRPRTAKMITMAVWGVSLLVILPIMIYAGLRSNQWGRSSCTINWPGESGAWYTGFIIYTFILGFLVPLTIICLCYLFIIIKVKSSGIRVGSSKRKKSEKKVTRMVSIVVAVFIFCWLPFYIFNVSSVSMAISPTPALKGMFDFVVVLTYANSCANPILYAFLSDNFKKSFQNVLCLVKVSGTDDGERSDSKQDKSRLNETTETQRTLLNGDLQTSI

Q: `Cc1cc(Cl)cc(-c2cnc3ccc(-c4cccc(O)c4)nc3c2C(=O)N(C)C[C@@H]2CCCN2)c1` [Compound 2-1, 3-(3-chloro-5-methylphenyl)-6-(3-hydroxyphenyl)-N-methyl-N-[(2S) -pyrrolidin-2-ylmethyl]-1,5-naphthyridine-4-carboxamide] was tested. Which EC50 did it give?
A: < 100 nM

Q: Which EC50 does the source give for `CN(C)C(=O)c1cccc(-c2cnc3ccc(-c4cccc(O)c4)cc3c2C(=O)N(C)C[C@@H]2CCCN2)c1` [Compound 1-73, 3-[3-(dimethylcarbamoyl)phenyl]-6-(3-hydroxyphenyl)-N-methyl-N-[(2S)-pyrrolidin-2-ylmethyl]quinoline-4-carboxamide] here?
A: 100 to 1000 nM

Q: For `Cc1cc(F)cc(-c2cnc3ccc(-c4cncc(C#N)c4)cc3c2C(=O)N(C)C[C@@H]2CCCN2)c1` [Compound 3-8, 6-(5-cyanopyridin-3-yl)-3-(3-fluoro-5-methylphenyl)-N-methyl-N-[(2S)-pyrrolidin-2-ylmethyl]quinoline-4-carboxamide], which EC50 is on record?
A: < 100 nM

Q: Which EC50 does the source give for `CN(C[C@@H]1CCCN1)C(=O)c1c(-c2cccc(-n3cccn3)c2)cnc2ccc(-c3cccc(O)c3)nc12` [Compound 2-8, 6-(3-hydroxyphenyl)-N-methyl-3-[3-(1H-pyrazol-1-yl)phenyl]-N-[(2S)-pyrrolidin-2-ylmethyl]-1,5-naphthyridine-4-carboxamide] here?
A: 100 to 1000 nM

Source: US11028068B2, “Somatostatin modulators and uses thereof” (Crinetics Pharmaceuticals, Inc., priority 2017, dated 2021)
